System: bile duct ligation mediated hepatic fibrosis
Assay: Bile Duct Ligation model of liver fibrosis
Assay type: in vivo, mouse
Conditions: BDL mice, DHX 5 mg/kg i.p. daily from Day 7 for 14 days
Method: Bile Duct Ligation: BDL was performed as previously described. Briefly, 8-10 weak old female C57BL/6N underwent either BDL or sham surgery. Mice were anesthetized on Day 0 following IACUC protocol, and the bile duct was ligated using sterile 3/0 silk ligatures. Sham surgery was performed by passing a silk ligature under the bile duct. Starting on Day 7, DHX (5 mg/kg) or vehicle control was administered everyday intraperitoneally (i.p.) for 14 days. Following the final DHX treatment, mice were sacrificed and the livers harvested for analysis of fibrosis.
Histological Scoring: Five μm thick sections were cut from Paraffin embedded lung tissues, and the sections were stained either with hematoxylin and eosin (H&E) or with Masson's Trichrome stain kit (Abcam). […] The severity of interstitial and peribronchiolar lung immature and mature fibrosis was estimated on a numerical scale according to Ashcroft et al. For scoring purposes, all H&E stained slides were systematically scanned at 100× magnification and successive 100× fields were scored. […] The predominant score for each field was recorded. The mean of all scores was calculated for each case. Liver trichrome stained sections were computationally measured using Image J software. […]
Hydroxyproline: Hydroxyproline content was measured using a hydroxyproline assay kit (Biovision) according to the manufacture's instruction with slight modification. […]

Oc1cc2c(cc1O)[C@H]1c3ccccc3CN[C@@H]1CC2 (racemic) [Dihydrexidine, dihydrexidine]
collagen deposition (hydroxyproline): trend toward reduced collagen deposition | histological fibrosis (trichrome): significantly improved histological fibrosis

— US20240252463A1, “METHODS OF TREATING FIBROTIC PATHOLOGIES” (Mayo Foundation for Medical Education and Research, priority 2018, published 2024)
